According to patent US6462055B2, “Alpha-methylbenzyl-containing thiourea inhibitors of herpes viruses containing a phenylenediamine group” (Wyeth, priority 1998, dated 2002):
In brackets after ≈: the same amount, converted by molar mass.

Legend:
[1] = tested on: HCMV recombinant mutant virus (RV145); assay: microbe, parasite or virus in culture; type: cell-based, human cytomegalovirus; conditions: for IC50: Human betaherpesvirus 5, read-out: IC50 ug/ml HCMV, HCMV
Text: Microtiter plate assay. Ninety-six well plate cultures of human foreskin fibroblasts are infected in the presence of inhibitor compound with a HCMV recombinant mutant virus whose genome contains the prokaryotic beta-glucuronidase gene (Jefferson, R. A., S. M. Burgess, and D. Hirsh. 1986. Beta-glucuronidase from Escherichia coli as a gene fusion marker. Proc. Natl. Acad. Sci. USA 83:8447-8451) whose expression is controlled by a viral promoter. An example of such a virus is RV145 (Jones, T. R., V. P. Muzithras, and Y. Gluzman. 1991. Replacement mutagenesis of the human cytomegalovirus genome: US10 and US11 gene products are nonessential. J. Virol. 65:5860-5872). Since it is under the control of a viral promoter, beta-glucuronidase expression is an indirect indicator of growth and replication of HCMV in this assay. At 96 hours post-infection, the infected cell lysates are prepared (using 50 mM sodium phosphate [pH7.0]containing 0.1% Triton X-100 and 0.1% sarkosyl) and assayed for beta-glucuronidase activity using a substrate for the enzyme which when cleaved yields either a product which can be measured […] in a spectrophotometer or fluorescently in a microfluorimeter. Examples of such substrates are p-nitrophenyl-beta-D-glucuronide and methylumbelliferylglucuronide, respectively. The presence of an antiviral compound is indicated by the reduced expression of the HCMV genome resident beta-glucuronidase gene, compared to the absence of inhibitor. […] Data from this assay generated using varying amounts of inhibitor compound is also used to estimate the IC50 of an inhibitor compound.

HSV-1 = assay: HSV Antiviral (ELISA) Assay in Vero cells; type: cell-based, herpes simplex virus type 1; conditions: HSV-1, Vero cells; for IC50: Human alphaherpesvirus 1, read-out: IC50 (ug/ml) HSV
In short: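 Viral replication was quantified by cell-fixed ELISA for HSV glycoprotein D, using a β-galactosidase reporter and fluorogenic umbelliferyl substrate, about 24 h after HSV-1 infection (MOI 0.006) of Vero cells. Compounds, at several concentrations, were added 30 min pre-infection. IC50 was derived from fluorescence relative to the compound-free signal.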

VZV strain Ellen = assay: VZV Antiviral (ELISA) Assay in human foreskin fibroblast cells; type: cell-based, varicella-zoster virus; conditions: for inhibition at 10 µg/mL / IC50: Human alphaherpesvirus 3, Fibroblast; for inhibition at 10 µg/mL: read-out: % inhibition 10 ug/ml VZV, 10 ug/ml; for IC50: read-out: IC50 (ug/ml) VZV
In short: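 First, fibroblasts are infected at multiplicity below 0.1 and kept overnight. The harvested cell mixture then goes onto compound-containing wells for three days at 37° C. Finally, cells are fixed and viral gpII is measured by fluorogenic ELISA.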

| Structure (SMILES) | IC50 ug/ml HCMV [1] [µg/mL] | IC50 (ug/ml) HSV (HSV-1) [µg/mL] | IC50 (ug/ml) VZV (VZV strain Ellen) [µg/mL] | % inhibition 10 ug/ml VZV (VZV strain Ellen) [%] | IC50 [1] [µg/mL] | IC50 (HSV-1) [µg/mL] | inhibition at 10 µg/mL (VZV strain Ellen) [%] | IC50 (VZV strain Ellen) [µg/mL] |
| --- | --- | --- | --- | --- | --- | --- | --- | --- |
| O=C(Nc1ccc(NC(=S)NCCc2cccc(Cl)c2)cc1)c1ccccc1F [Example 563] | >0.5 | >10 | 9 (≈ 21 µM) |  |  |  |  |  |
| CC(NC(=S)Nc1ccc(NC(=O)c2ccccc2F)cc1)c1ccc(S(=O)(=O)N2CCCCC2)cc1 (stereo not shown) [Example 1009] | >10 | >10 | >10 |  |  |  |  |  |
| NNC(=O)c1cccc(NC(=S)Nc2ccc(NC(=O)c3ccccc3F)cc2)c1 [Example 463] | >10 | >10 | >10 | 19 |  |  |  |  |
| CN1CCC(N(C)c2ccc(NC(=S)Nc3ccc(NC(=O)c4ccccc4F)cc3)cc2Cl)CC1 [Example 855, N-[4-(3-{3-Chloro-4-[methyl-(1-methyl-piperidin-4-yl)-amino]-phenyl}-thioureido)-phenyl]-2-fluoro-benzamide] |  |  |  |  | 0.7 (≈ 1.33 µM) | 2.5 (≈ 4.75 µM) | 52 | > 10 |
| CS(=O)(=O)c1ccc(NC(=S)Nc2ccc(NC(=O)c3c(F)cccc3F)cc2)cc1Cl [Example 393] | 0.5 (≈ 1.01 µM) | >10 | >10 | 62 |  |  |  |  |
| O=C(Nc1ccc(NC(=S)Nc2ccc(F)c(Cl)c2)cc1)c1ccccc1F [Example 922, N-{4-[3-(3-Chloro-4-fluoro-phenyl)-thioureido]-phenyl}-2-fluoro-benzamide] |  |  |  |  | > 10 | 1 (≈ 2.39 µM) | 40 | > 10 |
| O=C(Nc1ccc(NC(=S)Nc2ccc(Cl)cc2O)cc1)c1ccccc1F [Example 1001, N-{4-[3-(4-Chloro-2-hydroxy-phenyl)-thioureido]-phenyl}-2-fluoro-benzamide] |  |  |  |  | 2.6 (≈ 6.25 µM) | 4.3 (≈ 10.3 µM) |  | 3.6 (≈ 8.66 µM) |
| Cc1cccc(C(C)NC(=S)Nc2ccc(NC(=O)c3ccccc3F)cc2)c1 (stereo not shown) [Example 776] | 0.9 (≈ 2.21 µM) | >10 | >7.5 |  |  |  |  |  |
| CCN(CC)CC(=O)Nc1ccc(NC(=S)Nc2ccc(NC(=O)c3ccccc3F)cc2)cc1Cl [Example 414] | >10 | 6 (≈ 11.4 µM) | >15 | 70 |  |  |  |  |
| O=C(Nc1ccc(NC(=S)NCc2ccc(Cl)c(Cl)c2)cc1)c1ccccc1F [Example 538] | >10 | >10 | 10 (≈ 22.3 µM) |  |  |  |  |  |
| O=C(Nc1ccc(NC(=S)Nc2ccc(OCC(F)(F)F)cc2OCC(F)(F)F)cc1)c1ccccc1F [Example 1010, N-(4-{3-[2,4-Bis-(2,2,2-trifluoro-ethoxy)-phenyl]-thioureido}-phenyl)-2-fluoro-benzamide] |  |  |  |  | > 10 | > 10 |  | > 10 |
| CC(N=[N+]=[N-])c1ccc(NC(=S)Nc2ccc(NC(=O)c3ccccc3F)cc2)cc1Cl (stereo not shown) [Example 492] | 2 (≈ 4.26 µM) | >10 | >10 | 32 |  |  |  |  |
| COc1cc(OC)c(NC(=S)Nc2ccc(NC(=O)c3ccccc3)cc2)cc1Cl [Example 122] | 4 (≈ 9.05 µM) | 0.3 (≈ 0.679 µM) | >10 | 13 |  |  |  |  |
| O=C(Nc1ccc(NC(=S)Nc2ccc(Cl)c(C(F)(F)F)c2)cc1)c1c(F)cccc1F [Example 380] | >10 | >10 | >10 | 50 |  |  |  |  |
| CN(C)c1cc(Cl)cc(NC(=S)Nc2ccc(NC(=O)c3ccccc3F)cc2)c1 [Example 523] | 3.2 (≈ 7.22 µM) | 0.6 (≈ 1.35 µM) | 4 (≈ 9.03 µM) | 75 |  |  |  |  |
| COc1ccc(NC(=S)Nc2ccc(NC(=O)c3ccccc3F)cc2)cc1F [Example 995, 2-Fluoro-N-{4-[3-(3-fluoro-4-methoxy-phenyl)-thioureido]-phenyl}-benzamide] |  |  |  |  | > 10 | > 10 |  | > 10 |
| Nc1nccc(-c2ccc(NC(=S)Nc3ccc(NC(=O)c4ccccc4F)cc3)cc2Cl)n1 [Example 502] | 1.8 (≈ 3.65 µM) | >10 | >10 | 13 |  |  |  |  |
| O=C(Nc1ccc(NC(=S)NC(Cc2ccccc2)c2ccc(F)cc2)cc1)c1ccccc1F (stereo not shown) [Example 774] | 0.5 (≈ 1.03 µM) | >10 | >7.5 |  |  |  |  |  |
| CCOC(=O)COc1cccc(C(=O)Nc2ccc(NC(=S)Nc3cc(Cl)c(OC)cc3OC)cc2)c1 [Example 221] | >10 | >10 | >10 | 17 |  |  |  |  |
| CC(C)CN(C)c1cc(NC(=S)Nc2ccc(NC(=O)c3ccccc3F)cc2)cc(C(F)(F)F)c1 [Example 596] | 2 (≈ 3.86 µM) | >10 | >10 |  |  |  |  |  |
| COc1ccc(NC(=S)Nc2ccc(NC(=O)c3ccccc3F)cc2)cc1C(F)(F)F [Example 998, 2-Fluoro-N-{4-[3-(4-methoxy-3-trifluoromethyl-phenyl)-thioureido]-phenyl}-benzamide] |  |  |  |  | > 10 | 3 (≈ 6.47 µM) |  | 5 (≈ 10.8 µM) |
| COc1cc(OC)c(NC(=S)Nc2ccc(NC(=O)c3ccccc3F)cc2Cl)cc1Cl [Example 355] | >10 | 0.035 (≈ 0.0708 µM) | >10 | 40 |  |  |  |  |
| COc1cc(OC)c(NC(=S)Nc2ccc(NC(=O)c3ccccc3N)cc2)cc1Cl [Example 181] | >10 | 1.5 (≈ 3.28 µM) | >10 | 60 |  |  |  |  |
| CC(NC(=S)Nc1ccc(NC(=O)c2nccc3ccccc23)cc1)c1cc2ccccc2o1 (stereo not shown) [Example 977, Isoquinoline-1-carboxylic acid {4-[3-(1-benzofuran-2-yl-ethyl)-thioureido]-phenyl}-amide] |  |  |  |  | > 10 | > 10 |  | 0.05 (≈ 0.107 µM) |
| COc1cc(OC)c(NC(=S)Nc2ccc(NC(=O)c3cccc(O)c3)cc2)cc1Cl [Example 254] | 4 (≈ 8.73 µM) | 0.9 (≈ 1.97 µM) | 4 (≈ 8.73 µM) | 110 |  |  |  |  |
| CCCCSc1ccc(NC(=S)Nc2ccc(NC(=O)c3ccccc3F)cc2)cc1Cl [Example 387] | >10 | >10 | >10 | 26 |  |  |  |  |
| CN(c1ccc(NC(=S)Nc2ccc(NC(=O)c3c(F)cccc3F)cc2)cc1Cl)C1CCCCC1 [Example 248] | 2 (≈ 3.78 µM) | >10 | 2 (≈ 3.78 µM) | 96 |  |  |  |  |
